Patent US8835644B2, “Broad spectrum benzothiophene-nitrothiazolide and other antimicrobials” (University of Virginia Patent Foundation, priority 2009, dated 2014)
Converted amounts (≈) assume the structure as drawn. “And” between values parts separate entries of the source, which are not always exact repeats. Equal values may be shown once. Read-outs that look alike come from different tables or passages of the source.

Tests used:
H. pylori = test: MIC testing by broth dilution, H. pylori; assay type: cell-based, Helicobacter pylori
Procedure, shortened: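 Helicobacter pylori was tested using a standard broth dilution method in 96 well microplates, each well holding a standard dilution of the organism in 100 microliters of Brain Heart Infusion. Compounds started at 32 μg/ml in 200 microliters in the first well and were serially diluted from 32 to 0.06. Wells were read visually at 24 h, and the MIC was the well with no growth.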

MRSA = test: MIC testing by broth dilution, MRSA; assay type: cell-based, Staphylococcus aureus
Procedure, shortened: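 Values are broth-dilution MICs, defined as the well showing no growth on visual reading after 24 h; the tested range was 32 to 0.06 μg/ml, in organism-specific media (LB, Trypticase Soy, Brain Heart Infusion). The C. difficile entries come instead from anaerobic Kirby-Bauer disk zones, normalised to NTZ.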

E. coli = test: MIC testing by broth dilution, E. coli plank; assay type: cell-based, Escherichia coli
Procedure, shortened: (§1)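 Planktonic E. coli (LB) and S. epidermidis (Trypticase Soy), plus C. jejuni (Brain Heart Infusion), were exposed to a dilution series starting at 32 μg/ml. The C. difficile values are anaerobic zone ratios against NTZ.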

C. difficile = test: Disk diffusion (Kirby Bower), C. difficile; assay type: cell-based, Clostridium difficile; conditions: for Disk Diff (%) C. difficile: Nitazoxanide = 100
Procedure, shortened: as §1

[1] = system: PFOR (pyruvate ferredoxin oxidoreductase); test: Direct PFOR enzyme assay; assay type: biochemical
[2] = system: S. aureus and S. epidermidis strains; test: MIC by microdilution in TSB, staphylococcal strains; assay type: cell-based, Staphylococcus epidermidis; conditions: Staphylococcus aureus; staphylococcal strains incl. MRSA S. aureus, microdilution in TSB; read-out: MIC
Method: (§2) Minimal inhibitory concentration testing of NTZ was done in sterile round bottom 96 well microtiter polystyrene plates (Corning Inc., Corning, N.Y.) by microdilution. Tizoxanide TIZ (deacetylated form of NTZ), denitro-NTZ (TIZ without 5-nitro group) and amoxanide AMIX (TIZ-ethylamine) were also tested. Bacteria were grown overnight and suspended in fresh TSB to an OD600 of 0.01 and 100 μl were dispensed into wells with the first well containing 200 μA NTZ and other antibiotics (DMSO control) were added to well one and serially diluted from 32 μg/ml. All compounds were tested in triplicate and plates were read visually or with a plate reader (Molecular Devices) at 8, 12 and at 24 h. MIC was determined as the first well in which no visible bacterial growth was noted relative to controls. Drug effects on aerobic growth were determined in 125 ml flasks containing 25 ml of TSB medium and following inoculation (detailed above), flasks were on a gyrorotary shaker (200 rpm) at 37° C. Final concentrations of NTZ were 0, 10 and 25 μg/ml and samples were removed at hourly intervals and absorbance determined at 600 nm.

S. epidermidis = test: Aerobic growth of S. epidermidis in shaken TSB flasks; assay type: cell-based, Staphylococcus epidermidis
Method: as §2

[3] = system: S. epidermidis strain 9142; test: Biofilm determination, crystal violet, S. epidermidis; assay type: cell-based, Staphylococcus epidermidis
Method: (§3) Staphylococcal strains were cultured overnight in TSB at 37° C. with shaking, diluted in fresh medium to an OD600 of 0.01 and 200 W was dispensed into sterile flat bottom polystyrene 96 well microtiter plates (Costar 3596, Corning Inc.). […] Each compound and dilution was tested in triplicate. The plates were incubated overnight at 37° C. in a humidified incubator, without shaking and both growth and biofilm accumulation were determined at 16 h.
(§4) Following recording of turbidities, the culture medium was aspirated and the wells were washed three times with distilled water, blotted on paper towels, and fixed with 75% ethanol for 10 minutes.
(§5) To visualize biofilm material, 0.5% crystal violet was added to each well and after 5 minutes was removed and the wells washed three times with distilled water. Plates were read using a microplate reader at a wavelength of 570 nm. The dye was then extracted by adding 200 W of 95% ethanol, and the absorbance was read again at 570 nm. All assays were performed in triplicate and the mean and standard deviation determined. Generally, the ethanol-solubilized crystal violet was more reliable and these determinations are reported throughout.

[4] = system: S. haemolyticus strain 33208; test: Biofilm determination, crystal violet, S. haemolyticus; assay type: cell-based; conditions: Staphylococcus haemolyticus; S. haemolyticus strain 33208, crystal violet; read-out: IC50 biofilm production
Method: as §3, §4, §5

S. epidermidis 9142 = test: Biofilm dispersal assay; assay type: cell-based, Staphylococcus epidermidis; conditions: drug added to 4 h biofilm
[5] = system: S. epidermidis strain 9142; test: Effect of zinc on the action of NTZ (biofilm and MIC); assay type: cell-based, Staphylococcus epidermidis; conditions: zinc 20 μM, read at 8 h
Method: […] As a control, ZnCl2 was added to untreated bacteria. Additional controls included testing of 10 μM CaCl2 and MgCl2 in the same format. The inhibitory effect of EDTA on biofilm production and its reversibility by Zn^2+ was also assessed as described for NTZ.

EAEC = test: Motility in soft agar; assay type: cell-based, Escherichia coli; conditions: concentrations that inhibited biofilm formation
Method: EAEC strains were grown overnight in MinA-G medium at 37° C. with shaking and used to inoculate fresh MinA-G medium containing a range of NTZ concentrations (0, 5, 10, 15, 20, and 25 μg/ml) to a starting OD600 of 0.1. Growth was recorded as the absorbance at 600 nm at 30-minute intervals over a period of eight hours. […] Motility was assessed in LB soft agar (0.3% agar) containing 0 to 25 μg/ml of NTZ. The diameter of outward spreading was measured daily and inhibition computed as percent of control.

## CC(=O)Oc1ccccc1C(=O)Nc1ncc([N+](=O)[O-])s1 [Nitazoxanide, 2-(acetyloxy)-N-(5-nitro-2-thiazolyl)benzamide, reference compound]
H. pylori; 2-amino-3,5-dinitrothiophene analogues table, read-out: MIC H. pylori
  MIC: 13.0 µM (≈ 3.99 µg/mL)
H. pylori; Helicobacter pylori, Furan analogues table, read-out: MIC H. pylori
  MIC: 13 µM (≈ 3.99 µg/mL)
H. pylori; Helicobacter pylori, broth dilution, Brain Heart Infusion, 24 h, read-out: MIC (μM) H. pylori
  MIC: 13 µM (≈ 3.99 µg/mL)
H. pylori; Thiophene analogues table, read-out: MIC H. pylori
  MIC: 13.0 µM (≈ 3.99 µg/mL)
MRSA; 2-amino-3,5-dinitrothiophene analogues table, read-out: MIC MRSA
  MIC: 39.1 µM (≈ 12 µg/mL)
MRSA; Staphylococcus aureus, MRSA, broth dilution, Trypticase Soy, 24 h, read-out: MIC (μM) MRSA
  MIC: 39.1 µM (≈ 12 µg/mL)
MRSA; Thiophene analogues table, read-out: MIC MRSA
  MIC: 39.1 µM (≈ 12 µg/mL)
E. coli; Escherichia coli, broth dilution, LB medium, 24 h, read-out: MIC (μM) E. coli Plank
  MIC: 104 µM (≈ 32 µg/mL)
E. coli; Escherichia coli, planktonic, Furan analogues table, read-out: MIC E. coli Plank
  MIC: 104 µM (≈ 32 µg/mL)
E. coli; planktonic, 2-amino-3,5-dinitrothiophene analogues table, read-out: MIC E. coli Plank
  MIC: 104.1 µM (≈ 32 µg/mL)
E. coli; planktonic, Thiophene analogues table, read-out: MIC E. coli Plank
  MIC: 104.1 µM (≈ 32 µg/mL)
C. difficile; 2-amino-3,5-dinitrothiophene analogues table
  Disk Diff (%) C. difficile: 100%
C. difficile; Furan analogues table
  Disk Diff (%) C. difficile: 100%
C. difficile; Thiophene analogues table
  Disk Diff (%) C. difficile: 100%
C. difficile; zone of inhibited growth as relative ratio to the zone for NTZ
  Disk Diffusion (%) C. difficile: 100%
[1]
  PFOR inhibition relative to nitazoxanide (=100): 100%
[1]; * biphasic initial inhibition followed by uninhibited rate, ** caused some precipitant in extract
  PFOR inhibition relative to nitazoxanide (=100): 100%
[1]; Furan analogues table
  PFOR inhibition relative to nitazoxanide (=100): 100%
[1]; Thiophene analogues table
  PFOR inhibition relative to nitazoxanide (=100): 100%
[2]
  MIC: 8 to 16 µg/mL (≈ 26 to 52.1 µM)
S. epidermidis; 10 μg/ml
  Effect on exponential growth rates: little effect on exponential growth rates
S. epidermidis; 25 μg/ml
  Inhibition of growth in liquid culture under vigorous aeration: significant inhibition
[3]; S. epidermidis strain 9142, crystal violet, listed as NTZ
  IC50 biofilm production: 4 µg/mL (≈ 13 µM)
[3]; Staphylococcus epidermidis, 9142, S. epidermidis strain 9142, crystal violet, read-out: IC50 biofilm production
  IC50: 2.5 µg/mL and ~8 µM
[3]; Staphylococcus epidermidis, 9142, clinical S. epidermidis isolates and strain 5179-R1, read-out: IC50 biofilm formation, all strains tested
  IC50: 2.5 to 5 µg/mL (≈ 8.14 to 16.3 µM)
[3]; static (microaerobic) growth, 15 μg/ml
  Biofilm accumulation on the bottom of flasks: completely ablated
[4]
  IC50: 2.5 µg/mL (≈ 8.14 µM)
S. epidermidis 9142
  Dispersal of preformed biofilm: not dispersive
[5]
  Effect of Zn2+ on the growth inhibitory action (MIC): no effect
EAEC
  Effect on swarming motility in soft agar: no effect
